Data reported in ChEMBL document CHEMBL1201862, “PubChem BioAssay data set” (2004).
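Assay format: 96-well plates, 48-hour exposure. GI50: concentration for 50% inhibition of growth.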 Calls of active or inactive are those of the source. Rule as the data show it: active = GI50 up to about 1.1 µM and inactive = higher.

Columns and labels:
Assay in all cases: NCI-60 cell line screen, 48 h
[1] = test system: SNB-75
[2] = test system: KM12
[3] = test system: K562
[4] = test system: HCC 2998
[5] = test system: SN12C
[6] = test system: MOLT-4
[7] = test system: MCF7
[8] = test system: UACC-62
[9] = test system: NCI/ADR-RES
[10] = test system: NCI-H226
[11] = test system: U-251
[12] = test system: M14
[13] = test system: SK-MEL-2
[14] = test system: HOP-92
[15] = test system: SF-268
[16] = test system: UACC-257
[17] = test system: PC-3
[18] = test system: A498
[19] = test system: MDA-N

Measured: GI50

Cn1c2ccccc2c2c3c(c4c5ccccc5n(C)c4c21)C(=O)NC3=O
inactive: [1] 29 µM | [2] 3.96 µM | [3] > 54.6 µM | [4] > 33.7 µM | [5] > 37.9 µM | [6] > 100 µM | [7] 37.8 µM | [8] > 32.9 µM | [9] > 45.3 µM | [10] 40.7 µM | [11] 16.8 µM | [12] > 41.3 µM | [13] > 26.5 µM | [14] > 36.7 µM | [15] 97.5 µM | [16] > 65.2 µM | [17] > 31.4 µM

O=C1CCCc2c1c1c(n2Cc2ccccc2)-c2ccccc2C1=O
inactive: [1] 62.5 µM | [2] 17.9 µM | [3] 13.9 µM | [4] 15.2 µM | [5] 19.3 µM | [7] 29 µM | [8] 17.9 µM | [9] 21.1 µM | [10] 21.6 µM | [11] 20.7 µM | [12] 21.3 µM | [13] 18.9 µM | [14] 26.9 µM | [15] 22.2 µM | [16] 17.3 µM | [17] 27.4 µM

CCOC(=O)c1c(-c2ccccc2)oc(=O)c(Cc2cccc3cccnc23)c1-c1ccccc1
inactive: [1] > 10 µM | [2] > 10 µM | [3] > 10 µM | [4] > 10 µM | [5] > 10 µM | [6] > 10 µM | [7] > 10 µM | [8] > 10 µM | [9] > 10 µM | [10] > 10 µM | [11] > 10 µM | [18] > 10 µM | [12] > 10 µM | [13] > 10 µM | [14] > 10 µM | [15] > 10 µM | [16] > 10 µM | [17] 9.55 µM

C[N+]1(c2ccccc2)C=C(c2ccccc2)SC1=S (stereo not given)
inactive: [2] > 100 µM | [3] 42.7 µM | [4] > 100 µM | [5] > 100 µM | [7] 41.7 µM | [8] > 100 µM | [9] > 100 µM | [10] > 100 µM | [11] > 100 µM | [18] 6.12 µM | [12] > 100 µM | [13] 58.3 µM | [15] > 100 µM | [16] 48.9 µM | [17] > 100 µM

Cc1cc(C)nc(NS(=O)(=O)c2ccc(NC(=O)c3ccc4nc5ccccc5c(Nc5ccc(S(N)(=O)=O)cc5)c4c3)cc2)n1
inactive: [1] > 100 µM | [2] 65.8 µM | [3] 40 µM | [4] > 100 µM | [5] > 100 µM | [6] 50.6 µM | [7] 49.2 µM | [8] > 100 µM | [9] > 100 µM | [10] > 100 µM | [11] 59 µM | [12] > 100 µM | [13] 42.9 µM | [14] 51.3 µM | [15] > 100 µM | [16] > 100 µM | [17] > 100 µM

c1ccc(-c2cn3nc(N4CCOCC4)sc3n2)cc1
inactive: [1] 38.7 µM | [2] > 100 µM | [3] > 100 µM | [4] > 100 µM | [5] 8.49 µM | [6] > 100 µM | [7] > 100 µM | [8] > 100 µM | [9] > 100 µM | [10] > 100 µM | [11] 48.6 µM | [12] > 100 µM | [13] > 100 µM | [15] > 100 µM | [16] > 100 µM | [17] > 100 µM

Cc1ccc2c(c1)-c1nc(N)c(C#N)c(-c3ccc(Cl)cc3)c1CCS2(=O)=O
inactive: [1] 49 µM | [2] 33.3 µM | [4] 64.3 µM | [19] 39.3 µM | [5] 55.7 µM | [8] 28.2 µM | [9] 36.2 µM | [10] 28.4 µM | [11] 40 µM | [18] 24.6 µM | [13] 22.5 µM | [14] 36.1 µM | [15] 67.6 µM | [16] 45.6 µM | [17] 26.8 µM

C(=N\c1ccc(-c2nc3ccccc3s2)cc1)/c1ccco1
inactive: [1] 85.5 µM | [2] 38 µM | [3] 41.3 µM | [4] 43.5 µM | [19] 72.9 µM | [5] 75.2 µM | [6] 29 µM | [8] 54.2 µM | [9] 60.8 µM | [10] 56.4 µM | [11] 47.6 µM | [18] 27 µM | [12] 93.5 µM | [13] 60.3 µM | [14] 39.5 µM | [15] 48.2 µM | [16] 43.8 µM | [17] 32.5 µM

CC(=O)OCc1cc2ccccc2nc1C(Br)(Br)Br
inactive: [1] 14.6 µM | [2] 13 µM | [3] 18 µM | [4] 15.4 µM | [5] 13.2 µM | [6] 9.02 µM | [7] 14.7 µM | [8] 15.5 µM | [9] 17.1 µM | [10] 21.5 µM | [11] 14 µM | [18] 21.2 µM | [12] 18.8 µM | [13] 18.5 µM | [14] 11.7 µM | [15] 17.8 µM | [16] 12.4 µM

O=C1NC(=O)C(C(=O)C(=O)Nc2cccc(C(F)(F)F)c2)C(=O)N1
inactive: [1] 52.8 µM | [2] > 100 µM | [3] > 100 µM | [4] > 100 µM | [6] > 100 µM | [8] > 100 µM | [11] > 100 µM | [18] > 100 µM | [12] > 100 µM | [13] > 100 µM | [15] > 100 µM | [16] 53 µM

CCCCOC(=O)NC(Nc1ccc(S(=O)(=O)Nc2ncccn2)cc1)(C(F)(F)F)C(F)(F)F
inactive: [2] > 100 µM | [3] > 100 µM | [4] 33.5 µM | [19] > 100 µM | [5] > 100 µM | [6] > 100 µM | [8] > 100 µM | [9] > 100 µM | [10] > 100 µM | [18] > 100 µM | [12] > 100 µM | [14] > 100 µM | [15] > 100 µM | [17] > 100 µM

Cc1cn(S(=O)(=O)c2ccccc2)c2c(OCc3ccccc3)cc([N+](=O)[O-])cc12
inactive: [1] 25.3 µM | [2] > 100 µM | [3] > 100 µM | [4] > 100 µM | [5] 57.7 µM | [6] > 100 µM | [7] 32.4 µM | [8] 21.3 µM | [9] > 100 µM | [10] 58.7 µM | [11] 31 µM | [18] 30.6 µM | [12] > 100 µM | [13] 62.4 µM | [14] 74 µM | [15] > 100 µM | [16] > 100 µM | [17] 32.9 µM

Cn1c(N/N=C/c2ccccc2)nc(-c2ccc3c(c2)OCO3)c(C#N)c1=O
inactive: [1] > 100 µM | [2] 88.1 µM | [3] 87.3 µM | [19] > 100 µM | [5] 65.2 µM | [6] 48.4 µM | [7] > 100 µM | [8] 40.3 µM | [9] > 100 µM | [11] > 100 µM | [18] 95.9 µM | [12] > 100 µM | [13] > 100 µM | [14] 2.85 µM | [15] > 100 µM | [16] 77.1 µM | [17] 56.8 µM

Cc1cc(O)c(C(c2ccncc2)c2c(O)cc(C)[nH]c2=O)c(=O)[nH]1
inactive: [2] > 100 µM | [3] > 100 µM | [19] > 100 µM | [5] > 100 µM | [6] > 100 µM | [7] > 100 µM | [8] > 100 µM | [9] > 100 µM | [11] > 100 µM | [12] > 100 µM | [15] > 100 µM | [16] > 100 µM | [17] > 100 µM

CCOC(=O)c1c(NC(=O)c2ccccc2)sc2c1CCC2
inactive: [1] > 100 µM | [2] > 100 µM | [3] > 100 µM | [19] > 100 µM | [5] > 100 µM | [6] > 100 µM | [7] > 100 µM | [8] > 100 µM | [9] > 100 µM | [10] > 100 µM | [18] > 100 µM | [12] > 100 µM | [13] > 100 µM | [15] > 100 µM | [16] > 100 µM | [17] > 100 µM

CCCCCNC(=O)C1C(=O)N(CCCCC)C(=O)/C1=N\N (stereo not given)
inactive: [2] 53.2 µM | [3] 34.4 µM | [4] 35.3 µM | [5] 54.2 µM | [6] 40.8 µM | [8] 43.5 µM | [11] 30.1 µM | [18] > 100 µM | [12] 57.9 µM | [13] 35.2 µM | [14] 37.8 µM | [15] 63.8 µM | [16] > 100 µM

C[C@@H]1C[C@H]2[C@@H]3CCC4=CC(=O)C=C[C@]4(C)[C@@]3(Cl)[C@@H](Cl)C[C@]2(C)[C@@]1(O)C(=O)COP(=O)(O)O
inactive: [1] > 100 µM | [2] > 100 µM | [3] 7.41 µM | [4] > 100 µM | [19] 56.2 µM | [5] 17.6 µM | [6] 22 µM | [7] > 100 µM | [8] > 100 µM | [10] > 100 µM | [11] > 100 µM | [18] > 100 µM | [12] > 100 µM | [13] > 100 µM | [14] > 100 µM | [15] > 100 µM | [16] > 100 µM | [17] > 100 µM
